Values joined by “and” are separate entries in the source; they are usually repeats but may differ in a detail not shown here. Equal values may be shown once. Read-outs that look alike come from different tables or passages of the source.
Experiments:
Type in all cases: cell-based
Nur77 = molecular target: T1, Nur77 (Homo sapiens, UniProt P22736); test: Gal4-Nur77 hybrid reporter gene assay; conditions: HEK293T
T1 construct: chimeric receptors composed of the Gal4-DBD and the hinge region and LBD; expressed in transfected cells; host or cells: HEK293T
Protocol: (§1) Nurr1 modulation was determined in a Gal4 hybrid reporter gene assay in HEK293T cells (German Collection of Microorganisms and Cell Culture GmbH, DSMZ) using pFR-Luc (Stratagene, La Jolla, CA, USA; reporter), pRL-SV40 (Promega, Madison, WI, USA; internal control) and pFA-CMV-hNurr1-LBD[14], coding for the hinge region and ligand binding domain of the canonical isoform of human Nurr1. […] After 24 h, the medium was changed to Opti-MEM without supplements, and cells were transiently transfected using Lipofectamine LTX reagent (Invitrogen, Carlsbad, CA, USA) according to the manufacturer’s protocol. Five hours after transfection, cells were incubated with the test compounds in Opti-MEM supplemented with penicillin (100 U/mL), streptomycin (100 μg/mL), and 0.1% DMSO for 16 h before luciferase activity was measured using the Dual-Glo Luciferase Assay System (Promega) according to the manufacturer’s protocol on a Tecan Spark luminometer (Tecan Deutschland GmbH, Crailsheim, Germany). Firefly luminescence was divided by Renilla luminescence and multiplied by 1000 resulting in relative light units (RLU) to normalize for transfection efficiency and cell growth. Fold activation was obtained by dividing the mean RLU of the test compound by the mean RLU of the untreated control. All samples were tested in at least three biologically independent experiments in duplicates. For dose-response curve fitting and calculation of EC50 values, the equation “[Agonist] vs. response -- Variable slope (four parameters)” was used in GraphPad Prism (version 7.00, GraphPad Software, La Jolla, CA, USA). Selectivity profiling was performed with identical procedures using pFA-CMV-Nur77-LBD[14], pFA-CMV-NOR-1-LBD[14], pFA-CMV-THRα-LBD[51], pFA-CMV-RARα-LBD[52], pFA-CMV-PPARα-LBD[53], pFA-CMV-PPARγ-LBD[53], pFA-CMV-PPARδ-LBD[53], pFA-CMV-LXRα-LBD[54], pFA-CMV-FXR-LBD[55] and pFA-CMV-hRXRα-LBD[56].

NOR-1 = molecular target: T2, NOR-1 (Homo sapiens, UniProt Q92570); test: Gal4-NOR-1 hybrid reporter gene assay; conditions: HEK293T
T2 construct: chimeric receptors composed of the Gal4-DBD and the hinge region and LBD; expressed in transfected cells; host or cells: HEK293T
T2 sequence (Q92570 394-623 limits assumed): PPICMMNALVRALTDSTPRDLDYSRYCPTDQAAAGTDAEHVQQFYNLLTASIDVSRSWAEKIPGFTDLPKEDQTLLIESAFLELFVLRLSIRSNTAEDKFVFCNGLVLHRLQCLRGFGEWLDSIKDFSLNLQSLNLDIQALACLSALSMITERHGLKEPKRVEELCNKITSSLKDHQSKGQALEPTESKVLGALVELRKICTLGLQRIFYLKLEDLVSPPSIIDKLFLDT
Protocol: as §1

[1] = molecular target: T3, Nurr1-RXR heterodimer (DR5) (Homo sapiens, UniProt P43354); test: Full-length Nurr1 reporter gene assay (DR5)
T3 construct: The full-length human nuclear receptor Nurr1 (pcDNA3.1-hNurr1-NE; Addgene plasmid #102363); host or cells: HEK293T
Protocol: Activation of full-length human Nurr1 was studied in transiently transfected HEK293T cells using the reporter plasmids pFR-Luc-NBRE[14], pFR-Luc-POMC[14] or pFR-Luc-DR5[14] each containing one copy of the respective human Nurr1 response element NBRE Nl3, NurRE, or DR5. […] After 24 h, the medium was changed to Opti-MEM without supplements, and cells were transiently transfected using Lipofectamine LTX reagent (Invitrogen) according to the manufacturer’s protocol. Five hours after transfection, cells were incubated with the test compounds in Opti-MEM supplemented with penicillin (100 U/mL), streptomycin (100 μg/mL) and 0.1% DMSO for 16 h before luciferase activity was measured using the Dual-Glo Luciferase Assay System (Promega) according to the manufacturer’s protocol on a Tecan Spark luminometer (Tecan Deutschland GmbH). Firefly luminescence was divided by Renilla luminescence and multiplied by 1000 resulting in relative light units (RLU) to normalize for transfection efficiency and cell growth. Fold activation was obtained by dividing the mean RLU of the test compound by the mean RLU of the untreated control. All samples were tested in at least three biologically independent experiments in duplicates. For dose-response curve fitting and calculation of EC50 values, the equation “[Agonist] vs. response -- Variable slope (four parameters)” was used in GraphPad Prism (version 7.00, GraphPad Software).

[2] = test system: human midbrain organoids from wildtype iPSC (isogenic control); test: Midbrain organoid model, isogenic control; conditions: immunostaining, fixed area
[3] = molecular target: T4, human full-length Nurr1 monomer (NBRE) (Homo sapiens, UniProt P43354); test: Full-length Nurr1 reporter gene assay (NBRE); conditions: full-length human Nurr1 monomer, HEK293T
T4 construct: The full-length human nuclear receptor Nurr1 (pcDNA3.1-hNurr1-NE; Addgene plasmid #102363); host or cells: HEK293T
Text: Activation of full-length human Nurr1 was studied in transiently transfected HEK293T cells using the reporter plasmids pFR-Luc-NBRE[14], pFR-Luc-POMC[14] or pFR-Luc-DR5[14] each containing one copy of the respective human Nurr1 response element NBRE Nl3, NurRE, or DR5. The full-length human nuclear receptor Nurr1 (pcDNA3.1-hNurr1-NE; Addgene plasmid #102363) and, for DR5, RXRα (pSG5-hRXR)[57] were overexpressed. pRL-SV40 (Promega) was used for the normalization of transfection efficacy and to observe test compound toxicity. […] After 24 h, the medium was changed to Opti-MEM without supplements, and cells were transiently transfected using Lipofectamine LTX reagent (Invitrogen) according to the manufacturer’s protocol. Five hours after transfection, cells were incubated with the test compounds in Opti-MEM supplemented with penicillin (100 U/mL), streptomycin (100 μg/mL) and 0.1% DMSO for 16 h before luciferase activity was measured using the Dual-Glo Luciferase Assay System (Promega) according to the manufacturer’s protocol on a Tecan Spark luminometer (Tecan Deutschland GmbH). Firefly luminescence was divided by Renilla luminescence and multiplied by 1000 resulting in relative light units (RLU) to normalize for transfection efficiency and cell growth. Fold activation was obtained by dividing the mean RLU of the test compound by the mean RLU of the untreated control. All samples were tested in at least three biologically independent experiments in duplicates. For dose-response curve fitting and calculation of EC50 values, the equation “[Agonist] vs. response -- Variable slope (four parameters)” was used in GraphPad Prism (version 7.00, GraphPad Software).

PPARγ = molecular target: T5, PPARγ (Homo sapiens, UniProt P37231); test: Gal4-hybrid selectivity assay PPARγ; conditions: 3 µM; reference agonist = 100%
T5 construct: chimeric receptors composed of the Gal4-DBD and the hinge region and LBD; expressed in transfected cells; host or cells: HEK293T
Protocol: (§2) Nurr1 modulation was determined in a Gal4 hybrid reporter gene assay in HEK293T cells (German Collection of Microorganisms and Cell Culture GmbH, DSMZ) using pFR-Luc (Stratagene, La Jolla, CA, USA; reporter), pRL-SV40 (Promega, Madison, WI, USA; internal control) and pFA-CMV-hNurr1-LBD[14], coding for the hinge region and ligand binding domain of the canonical isoform of human Nurr1. […] After 24 h, the medium was changed to Opti-MEM without supplements, and cells were transiently transfected using Lipofectamine LTX reagent (Invitrogen, Carlsbad, CA, USA) according to the manufacturer’s protocol. Five hours after transfection, cells were incubated with the test compounds in Opti-MEM supplemented with penicillin (100 U/mL), streptomycin (100 μg/mL), and 0.1% DMSO for 16 h before luciferase activity was measured using the Dual-Glo Luciferase Assay System (Promega) according to the manufacturer’s protocol on a Tecan Spark luminometer (Tecan Deutschland GmbH, Crailsheim, Germany). Firefly luminescence was divided by Renilla luminescence and multiplied by 1000 resulting in relative light units (RLU) to normalize for transfection efficiency and cell growth. Fold activation was obtained by dividing the mean RLU of the test compound by the mean RLU of the untreated control. All samples were tested in at least three biologically independent experiments in duplicates. […]

THRα = molecular target: T6, THRα (Homo sapiens, UniProt P10827); test: Gal4-hybrid selectivity assay THRα; conditions: 3 µM; reference agonist = 100%
T6 construct: chimeric receptors composed of the Gal4-DBD and the hinge region and LBD; expressed in transfected cells; host or cells: HEK293T
Protocol: as §2

T5 sequence (P37231 238-503 limits assumed): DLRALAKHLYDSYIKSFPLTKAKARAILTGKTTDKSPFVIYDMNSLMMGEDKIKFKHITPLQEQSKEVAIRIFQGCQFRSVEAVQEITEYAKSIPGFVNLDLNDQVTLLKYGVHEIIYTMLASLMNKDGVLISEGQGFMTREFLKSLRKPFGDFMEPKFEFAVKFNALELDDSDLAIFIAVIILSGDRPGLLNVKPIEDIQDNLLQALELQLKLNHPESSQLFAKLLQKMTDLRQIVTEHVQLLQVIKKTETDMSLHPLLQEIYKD
T3 sequence (P43354 whole entry): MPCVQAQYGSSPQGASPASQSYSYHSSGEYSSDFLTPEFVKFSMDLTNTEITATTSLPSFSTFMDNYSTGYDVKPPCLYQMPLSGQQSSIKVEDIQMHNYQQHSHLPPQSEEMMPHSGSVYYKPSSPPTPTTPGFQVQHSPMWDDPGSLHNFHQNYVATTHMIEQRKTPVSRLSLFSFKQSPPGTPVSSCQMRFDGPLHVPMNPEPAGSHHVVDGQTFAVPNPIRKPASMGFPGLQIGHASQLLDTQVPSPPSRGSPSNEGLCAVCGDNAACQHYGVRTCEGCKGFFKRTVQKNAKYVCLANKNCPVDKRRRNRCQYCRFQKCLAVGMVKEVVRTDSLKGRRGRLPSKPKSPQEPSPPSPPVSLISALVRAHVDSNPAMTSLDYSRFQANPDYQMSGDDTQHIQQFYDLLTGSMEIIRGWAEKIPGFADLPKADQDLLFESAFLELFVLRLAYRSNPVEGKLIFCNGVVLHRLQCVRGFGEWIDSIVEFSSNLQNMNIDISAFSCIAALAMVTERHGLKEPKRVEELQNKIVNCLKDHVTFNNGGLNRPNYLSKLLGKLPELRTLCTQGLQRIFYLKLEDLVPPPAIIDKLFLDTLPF
T3 sequence (P19793 whole entry partner): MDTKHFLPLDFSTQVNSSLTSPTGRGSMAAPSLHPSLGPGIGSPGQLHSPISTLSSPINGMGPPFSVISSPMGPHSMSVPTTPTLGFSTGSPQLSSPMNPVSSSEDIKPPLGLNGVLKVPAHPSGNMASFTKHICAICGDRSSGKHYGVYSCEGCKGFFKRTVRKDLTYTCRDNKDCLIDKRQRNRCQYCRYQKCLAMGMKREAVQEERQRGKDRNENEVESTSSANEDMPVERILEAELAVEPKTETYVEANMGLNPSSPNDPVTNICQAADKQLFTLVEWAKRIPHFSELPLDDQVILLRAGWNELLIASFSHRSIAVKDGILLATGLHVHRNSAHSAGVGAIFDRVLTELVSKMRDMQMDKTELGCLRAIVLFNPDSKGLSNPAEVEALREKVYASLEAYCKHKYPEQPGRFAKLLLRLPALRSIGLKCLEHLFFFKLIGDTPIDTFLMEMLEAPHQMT
T6 sequence (P10827 128-410 isoform P10827-2 limits assumed): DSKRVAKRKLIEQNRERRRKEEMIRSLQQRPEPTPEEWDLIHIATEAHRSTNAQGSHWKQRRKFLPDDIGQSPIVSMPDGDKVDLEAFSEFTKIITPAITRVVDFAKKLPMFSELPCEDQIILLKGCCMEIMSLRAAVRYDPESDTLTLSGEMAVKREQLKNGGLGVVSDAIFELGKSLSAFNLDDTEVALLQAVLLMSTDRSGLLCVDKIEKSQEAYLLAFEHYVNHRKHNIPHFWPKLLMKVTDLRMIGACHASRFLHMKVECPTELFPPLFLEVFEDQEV
T1 sequence (P22736 360-595 limits assumed): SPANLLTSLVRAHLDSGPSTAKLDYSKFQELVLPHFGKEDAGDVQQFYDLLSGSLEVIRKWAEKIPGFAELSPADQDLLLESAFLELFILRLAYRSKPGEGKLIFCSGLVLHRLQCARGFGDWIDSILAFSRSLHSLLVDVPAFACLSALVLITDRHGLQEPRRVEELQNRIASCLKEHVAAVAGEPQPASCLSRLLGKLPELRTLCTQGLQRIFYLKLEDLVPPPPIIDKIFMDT
T4 sequence (P43354 whole entry): as the sequence (P43354 whole entry) above

`Cc1nc2c(Cl)cccn2c1NC(=O)c1ccc(-c2ccccc2)[nH]1` [Compound 29, N-(8-Chloro-2-methylimidazo[1,2-a]pyridin-3-yl)-5-phenyl-1H-pyrrole-2-carboxamide] was tested. Which “EC50(Nur77)” value (Nur77) did it give?
The value was “no activation (10 µM)”.

And the “EC50(NOR-1)” value (NOR-1)?
The value was “no activation (10 µM)”.

And the “EC50(DR5)” value ([1]; Nurr1-RXR heterodimer, HEK293T, without bexarotene)?
The value was “no activation (10 µM)”.

What about the TH positive cells [2] of the same compound?
Its TH positive cells is 44 and 37 and 31 and 38.

What about the “EC50(NBRE)” value [3] of the same compound?
Its value is “no activation (10 µM)”.

For `Cc1nc2c(Cl)cccn2c1NC(=O)c1ccc(-c2ccc(N(C)C)cc2)o1` [Compound 36, N-(8-Chloro-2-methylimidazo[1,2-a]pyridin-3-yl)-5-(4-(dimethylamino)phenyl)furan-2-carboxamide], which “% rel. act. PPARγ” value (PPARγ) is on record?
Its value is 10.373% and 9.960% and 8.281%.

And the EC50 (Nur77)?
Its EC50 is 330 ± 40 nM.

What about the EC50 (NOR-1) of the same compound?
Its EC50 is 110 ± 30 nM.

And the EC50 ([1]; EC50(DR5) [+0.1 µM BEX], Nurr1-RXR heterodimer, in presence of 0.1 µM bexarotene)?
The EC50 was 32 nM.

What about the “factor of potency enhancement by bexarotene (DR5)” value ([1]; EC50 with 0.1 µM BEX vs without) of the same compound?
The value was greater than 5.

What about the EC50 ([1]; Nurr1-RXR heterodimer, HEK293T, without bexarotene, read-out: EC50(DR5)) of the same compound?
The EC50 was 165 ± 4 nM.

What about the TH positive cells [2] of the same compound?
Its TH positive cells is 47 and 50 and 45 and 41.

What about the “EC50(NBRE)” value [3] of the same compound?
Its value is “no activation (1 µM)”.

What about the “% rel. act. THRα” value (THRα) of the same compound?
Its value is 0.070% and 0.082% and 0.063%.

— article PMC11217349, “Development of Nurr1 agonists from amodiaquine by scaffold hopping and fragment growing” (Communications Chemistry, 2024)
